Patent US10669268B2, “Bicyclic derivatives” (Hoffmann-La Roche Inc., priority 2012, dated 2020)

These compounds were tested against ATX (human His-tagged) (Homo sapiens (Human), UniProt Q13822) (assay: Human ATX enzyme inhibition assay (fluorescence quenching, MR121 substrate)). Conditions: 30 nM ATX, 1 μM MR121 substrate, 30° C., pH 8.0.
Assay type: biochemical
Method: Human ATX Enzyme Inhibition Assay
Assay working solutions were made as follows:
Assay buffer (50 mM Tris-HCl, 140 mM NaCl, 5 mM KCl, 1 mM CaCl2, 1 mM MgCl2, 0.01% Triton-X-100, pH 8.0;
MR121 substrate solution: MR121 substrate stock solution (800 μM MR121 substrate in DMSO), diluted to 2-5× final concentration in assay buffer.
10 μL of MR121 substrate solution was added (1 μM final concentration), mixed 30 times and then incubated for 15 minutes at 30° C.

Row | IC50 | Compound
1 | 15 nM | CC(C)Oc1cc(C(=O)N2C[C@@H]3CN(C(=O)[C@@H]4CCc5[nH]nnc5C4)C[C@H]3C2)nc2ccccc12 [Example 19.25, [(3aS,6aS)-5-[(5R)-4,5,6,7-tetrahydro-1H-benzotriazole-5-carbonyl]-1,3,3a,4,6,6a-hexahydropyrrolo[3,4-c]pyrrol-2-yl]-(4-propan-2-yloxyquinolin-2-yl)methanone]
2 | 3 nM | Cc1cc(CCC(=O)N2C[C@@H]3CN(C(=O)c4ccc5[nH]nnc5c4)C[C@H]3C2)c(C(C)C)cc1C#N [Example 19.21, 4-[3-[(3aR,6aR)-5-(1H-benzotriazole-5-carbonyl)-1,3,3a,4,6,6a-hexahydropyrrolo[3,4-c]pyrrol-2-yl]-3-oxopropyl]-2-methyl-5-propan-2-ylbenzonitrile]
3 | 32 nM | O=C(CCc1ccc(-c2cccnc2)cc1)N1C[C@@H]2CN(C(=O)c3ccc4[nH]nnc4c3)C[C@H]2C1 [Example 17.12, 1-[(3aR,6aR)-5-(1H-benzotriazole-5-carbonyl)-hexahydro-pyrrolo[3,4-c]pyrrol-2-yl]-3-(4-pyridin-3-yl-phenyl)-propan-1-one]
4 | 478 nM | O=C1N[C@@H]2CCN(C(=O)N3C[C@H]4CN(C(=O)CCc5ccc(OC(F)(F)F)cc5)C[C@@H]4C3)C[C@H]2O1 [Example 15.55]
5 | 309 nM | O=C(CCc1ccc(OC(F)(F)F)cc1)N1CC[C@@H]2CN(Cc3ccc4[nH]nnc4c3)C[C@H]2C1 (relative stereo) [Example 17.16, 1-[trans-2-(1H-benzotriazol-5-ylmethyl)-octahydro-pyrrolo[3,4-c]pyridin-5-yl]-3-(4-trifluoromethoxy-phenyl)-propan-1-one]
6 | 38 nM | O=C(/C=C/c1ccc(Cl)c(Cl)c1)N1CC[C@@H]2CN(C(=O)c3ccc4[nH]nnc4c3)C[C@@H]2CC1 [Example 15.31]
7 | 1360 nM | O=C(COc1cccc(OC(F)(F)F)c1)N1C[C@@H]2CN(C(=O)c3ccc4[nH]nnc4c3)C[C@@H]2C1 [Example 15.71]
8 | 12 nM | O=C(COc1ccc(OC(F)(F)F)cc1)N1C[C@@H]2CN(C(=O)c3ccc4[nH]nnc4c3)C[C@H]2C1 [Example 15.63]
9 | 12 nM | O=C(/C=C/c1ccc(-c2ccccc2)cn1)N1C[C@@H]2CN(C(=O)c3ccc4[nH]nnc4c3)C[C@H]2C1 [Example 15.84, (E)-1-[(3aR,6aR)-5-(1H-benzotriazole-5-carbonyl)-hexahydro-pyrrolo[3,4-c]pyrrol-2-yl]-3-(5-phenyl-pyridin-2-yl)-prop-2-en-1-one]
10 | 250 nM | O=C(c1ccc2ccccc2c1)N1C[C@@H]2CN(C(=O)c3ccc4[nH]nnc4c3)C[C@H]2C1 [Example 19.06, (1H-benzotriazol-5-yl)-[(3aR,6aR)-5-(naphthalene-2-carbonyl)-hexahydro-pyrrolo[3,4-c]pyrrol-2-yl]-methanone]

The next lines start with the compound.

Row | Compound | IC50
11 | O=C(/C=C/c1ccc(OC(F)(F)F)c(F)c1)N1CC[C@@H]2CN(C(=O)c3ccc4[nH]nnc4c3)C[C@@H]2CC1 [Example 1.15, (E)-1-((3aR,8aS)-2-(1H-benzo[d][1,2,3]triazole-5-carbonyl)octahydropyrrolo[3,4-d]azepin-6(7H)-yl)-3-(3-fluoro-4-(trifluoromethoxy)phenyl)prop-2-en-1-one] | 1 nM
12 | CS(=O)(=O)c1cc(Cl)cc(COC(=O)N2C[C@@H]3CN(C(=O)c4ccc5[nH]nnc5c4)CC[C@H]3C2)c1 [Example 4.09, (3aS,7aR)-5-(1H-benzotriazole-5-carbonyl)-octahydro-pyrrolo[3,4-c]pyridine-2-carboxylic acid 3-chloro-5-methanesulfonyl-benzyl ester] | 49 nM
13 | COC(c1cccc(COC(=O)N2C[C@@H]3CN(C(=O)c4ccc5[nH]nnc5c4)C[C@@H]3C2)c1)C(F)(F)F (stereo partly drawn) [Example 4.20, cis-5-(1H-benzotriazole-5-carbonyl)-hexahydro-pyrrolo[3,4-c]pyrrole-2-carboxylic acid 3-(2,2,2-trifluoro-1-methoxy-ethyl)-benzyl ester] | 722 nM
14 | O=C(OCc1cc(Cl)cc(Cl)c1)N1CC[C@@H]2CN(C(=O)c3ccc4[nH]nnc4c3)C[C@H]2C1 (relative stereo) [Example 1.09, trans-3,5-dichlorobenzyl 2-(1H-benzo[d][1,2,3]triazole-5-carbonyl)hexahydro-1H-pyrrolo[3,4-c]pyridine-5(6H)-carboxylate] | 9 nM
15 | O=C(/C=C/c1ccc(OC(F)(F)F)cc1)N1CC[C@@H]2CN(C(=O)C3CCc4[nH]nnc4C3)C[C@@H]2CC1 (stereo partly drawn) [Example 1, (E)-1-[(3aS,8aR)-2-(4,5,6,7-Tetrahydro-1H-benzotriazole-5-carbonyl)-octahydro-pyrrolo[3,4-d]azepin-6-yl]-3-(4-trifluoromethoxy-phenyl)-prop-2-en-1-one] | 8 nM
16 | O=C(/C=C/c1ccccn1)N1CC[C@@H]2CN(C(=O)c3ccc4[nH]nnc4c3)C[C@@H]2CC1 [Example 15.16] | 5790 nM
17 | O=C(/C=C/c1cccc(OC(F)(F)F)c1)N1C[C@@H]2CN(C(=O)c3ccc4[nH]nnc4c3)C[C@H]2C1 [Example 15.22] | 53 nM
18 | O=C(/C=C/c1cccc(Cl)c1)N1CC[C@@H]2CN(C(=O)c3ccc4[nH]nnc4c3)C[C@@H]2CC1 [Example 15.18] | 20 nM
19 | O=C(COc1ccc(C(F)(F)F)cc1Cl)N1CC[C@@H]2CN(C(=O)c3ccc4[nH]nnc4c3)C[C@@H]2CC1 [Example 1.38, 1-((3aR,8aS)-2-(1H-benzo[d][1,2,3]triazole-5-carbonyl)octahydropyrrolo[3,4-d]azepin-6(7H)-yl)-2-(2-chloro-4-(trifluoromethyl)phenoxy)ethanone] | 10 nM
20 | O=C(CCc1ccc(OCC(F)(F)F)cc1F)N1CC[C@@H]2CN(C(=O)c3ccc4[nH]nnc4c3)C[C@@H]2CC1 [Example 1.45, 1-[(3aS,8aR)-2-(1H-benzotriazole-5-carbonyl)-1,3,3a,4,5,7,8,8a-octahydropyrrolo[3,4-d]azepin-6-yl]-3-[2-fluoro-4-(2,2,2-trifluoroethoxy)phenyl]propan-1-one] | 7 nM
21 | O=C(OCc1cc(Cl)cc(Cl)c1)N1C[C@@H]2CN(C(=O)c3ccc4[nH]nnc4c3)C[C@@H]2C1 [Example 1.03, (3aR,6aS)-3,5-dichlorobenzyl 5-(1H-benzo[d][1,2,3]triazole-5-carbonyl)hexahydropyrrolo[3,4-c]pyrrole-2(1H)-carboxylate] | 25 nM
22 | O=C(OCCC12CC3CC(CC(C3)C1)C2)N1C[C@@H]2CN(C(=O)c3ccc4[nH]nnc4c3)C[C@@H]2C1 [Example 4.17, (3aS,6aR)-5-(1H-benzotriazole-5-carbonyl)-hexahydro-pyrrolo[3,4-c]pyrrole-2-carboxylic acid 2-adamantan-1-yl-ethyl ester] | 799 nM
23 | O=C(/C=C/c1ccc(Cl)cc1)N1CC[C@@H]2CN(C(=O)c3ccc4[nH]nnc4c3)C[C@@H]2CC1 [Example 15.06] | 12 nM
24 | O=C(CCc1cc(Cl)cc(Cl)c1)N1C[C@@H]2CN(C(=O)c3ccc4[nH]nnc4c3)C[C@@H]2C1 [Example 1.01, 1-((3aR,6aS)-5-(1H-benzo[d][1,2,3]triazole-5-carbonyl)hexahydropyrrolo[3,4-c]pyrrol-2(1H)-yl)-3-(3,5-dichlorophenyl)propan-1-one] | 35 nM
